Measurements published in patent US20220023773A1, “COMPOSITIONS COMPRISING 2-[(1R,6R)-6-ISOPROPENYL-3-METHYLCYCLOHEX-2-EN-1-YL]-3-HYDROXY-5-PENTYLPHENOLATE” (Natural Extraction Systems, LLC, priority 2018, published 2022).

Columns and labels:
Assay type in all cases: physicochemical
[1] = pH stability of the phenolate in water (color change purple to yellow-brown)
Procedure: 1 gram of 1R,6R CBD was dissolved in 6.6 milliliters of 0.5 molar potassium hydroxide (0.5 M KOH) in ethanol to produce 2-[(1R,6R)-6-isopropenyl-3-methylcyclohex-2-en-1-yl]-3-hydroxy-5-pentylphenolate. The solution was then diluted with 100 millimolar sodium carbonate (100 mM Na2CO3) in water to a final volume of 50 milliliters and a 2-[(1R,6R)-6-isopropenyl-3-methylcyclohex-2-en-1-yl]-3-hydroxy-5- pentylphenolate concentration of approximately 20 grams per liter. 0.5 milliliters of the 2-[(1R,6R)-6-isopropenyl-3-methylcyclohex-2-en-1-yl]-3-hydroxy-5-pentylphenolate solution was added to each of 25 test tubes containing 9.5 milliliters of 0.1 molar carbonate/bicarbonate (CO3^2−/HCO3^−) buffer according to Table 1. Each test tube contained approximately 10 milligrams of 2-[(1R,6R)-6-isopropenyl-3-methylcyclohex-2-en-1-yl]-3-hydroxy-5-pentylphenolate at a concentration of approximately 1 gram per liter, approximately 0.66% ethanol by weight, trace potassium ion, and variable sodium ion, carbonate ion, and bicarbonate ion. pH's were confirmed by multiple different measurements. […]

[2] = Determining the approximate pKa of 1R,6R CBD by color at varying sodium bicarbonate concentration; settings: distilled water with sodium bicarbonate, under the test conditions, from color change
Procedure: Example 2. Determining the approximate pKa of IR, 6R CBD 0.5 milliliters of the 20 gram-per-liter solution of 2-[(1R,6R)-6-isopropenyl-3-methylcyclohex-2-en-1-yl]-3-hydroxy-5-pentylphenolate described in Example 1 was diluted with 9.5 milliliters of distilled water comprising varying concentrations of sodium bicarbonate, and color was monitored as shown in Table 2. pH's were confirmed by multiple different measurements.

[3] = Commercial viability of beverages comprising the phenolate (appearance in bottled water)
Procedure: 20 milliliters of water was removed from a 1 liter bottle of ESSENTIA® OVERACHIEVING H2O®. ESSENTIA® OVERACHIEVING H2O® contains purified water, sodium bicarbonate, dipotassium phosphate, magnesium sulfate, and calcium chloride, and its pH was determined to be about 9.5. The 20 milliliters of removed water was replaced with 20 milliliters of the 20 gram-per-liter solution of 2-[(1R,6R)-6-isopropenyl-3-methylcyclohex-2-en-1-yl]-3-hydroxy-5-pentylphenolate, which is described in Example 1, and the bottle was hermetically sealed using the screw cap top of the bottle to produce a hermetically-sealed container comprising approximately 400 milligrams of 2-[(1R,6R)-6-isopropenyl-3-methylcyclohex-2-en-1-yl]-3-hydroxy-5-pentylphenolate. The pH of the liquid was measured and determined to be about 10. […] 5 milliliters of water was removed from a 500 milliliter bottle of DASANI® purified water.
DANSANI® purified water contains purified water, magnesium sulfate, potassium chloride, and sodium chloride, and its pH was determined to be about 7.0. The 5 milliliters of removed water was replaced with 5 milliliters of the 20 gram-per-liter solution of 2-[(1R,6R)-6-isopropenyl-3-methylcyclohex-2-en-1-yl]-3-hydroxy-5-pentylphenolate, which is described in Example 1, and the bottle was hermetically sealed using the screw cap top of the bottle to produce a hermetically-sealed container comprising approximately 100 milligrams of 2-[(1R,6R)-6-isopropenyl-3-methylcyclohex-2-en-1-yl]-3-hydroxy-5-pentylphenolate. The pH of the liquid was measured and determined to be about 9.5.
0.5 milliliters of water was removed from a 500 milliliter bottle of DASANI® purified water. DANSANI® purified water contains purified water, magnesium sulfate, potassium chloride, and sodium chloride, and its pH was determined to be about 7.0. […] The pH of the liquid was measured and determined to be about 8.5.

For C=C(C)[C@@H]1CCC(C)=C[C@H]1c1c(O)cc(CCCCC)cc1O [1R,6R CBD, 2-[(1R,6R)-6-isopropenyl-3-methylcyclohex-2-en-1-yl]-5-pentylbenzene-1,3-diol, reference compound], the pKa ([1]; suggested from absence of color change, at least in dilute aqueous solutions (alternative: kinetic trapping)) was < 9.1 and the pKa [2] was 8 to 8.5.
For C=C(C)[C@@H]1CCC(C)=C[C@H]1c1c(O)cc(CCCCC)cc1O [2-[(1R,6R)-6-isopropenyl-3-methylcyclohex-2-en-1-yl]-3-hydroxy-5-pentylphenolate], the “color change from purple (phenolate) to yellow-brown (1R,6R CBD)” value ([1]; pH's of 9.1 and above, approximately 1 gram per liter in 0.1 molar carbonate/bicarbonate buffer, approximately 0.66% ethanol) was “No color change”, the “appearance of the liquid” value ([3]; approximately 10 milligrams in 500 milliliter bottle of DASANI purified water, pH about 8.5) was “transparent and lacked discernable color” and the “appearance of the liquid” value ([3]; approximately 100 milligrams in 500 milliliter bottle of DASANI purified water, pH about 9.5) was “transparent and purple”. For the same compound, the “appearance of the liquid” value ([3]; approximately 400 milligrams in 1 liter bottle of ESSENTIA OVERACHIEVING H2O, pH about 10) was “purple and transparent”.
